Patent publication US20210115018A1, “PIPERIDINE COMPOUNDS AS COVALENT MENIN INHIBITORS” (THE REGENTS OF THE UNIVERSITY OF MICHIGAN, priority 2018, published 2021)

What was measured:
[1] = biological target: T1, menin protein (Homo sapiens, UniProt O00255); assay: Fluorescence polarization (FP) competitive binding assay, menin binding affinity; settings: FP competition with FAM-MM2 probe 2 nM, menin 4 nM, 30 minutes room temperature
T1 sequence (O00255 1-610): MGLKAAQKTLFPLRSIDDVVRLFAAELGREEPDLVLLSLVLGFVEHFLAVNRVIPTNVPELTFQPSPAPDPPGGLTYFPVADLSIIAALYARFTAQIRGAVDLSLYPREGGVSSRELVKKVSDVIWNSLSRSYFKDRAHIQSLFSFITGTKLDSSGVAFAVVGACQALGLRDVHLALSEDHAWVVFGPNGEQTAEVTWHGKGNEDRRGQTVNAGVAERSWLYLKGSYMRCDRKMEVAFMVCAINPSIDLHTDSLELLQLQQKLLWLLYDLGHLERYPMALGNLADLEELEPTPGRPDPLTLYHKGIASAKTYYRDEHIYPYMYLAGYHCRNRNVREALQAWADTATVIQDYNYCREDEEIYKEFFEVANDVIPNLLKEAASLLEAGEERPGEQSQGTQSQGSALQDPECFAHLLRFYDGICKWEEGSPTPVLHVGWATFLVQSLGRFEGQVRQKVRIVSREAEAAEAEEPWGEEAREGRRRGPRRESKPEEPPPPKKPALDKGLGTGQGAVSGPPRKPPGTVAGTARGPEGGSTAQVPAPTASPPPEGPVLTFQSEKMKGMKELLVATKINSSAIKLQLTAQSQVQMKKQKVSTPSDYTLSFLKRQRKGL
How it was run: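 Competitive FP with FAM-labeled MLL1 peptide probe FAM-MM2 (2 nM) and menin (4 nM) in PBS, 0.02% bovine γ-globulin, 4% DMSO, 0.01% Triton X-100. After 30 min at room temperature, mP read at 485/530 nm; IC50 from nonlinear regression against probe-only and complex-only controls.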

[2] = test system: MOLM13; assay: 7-day proliferation assay (WST-8), cell growth inhibition; assay type: cell-based; settings: Homo sapiens, MOLM-13, 168 h, MOLM13 cells, 7 days
How it was run: (§1)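 Cells seeded at 2,000-3,000/well were exposed to serially diluted compound for 7 days at 37° C., 5% CO2. Viability was read by WST-8 absorbance at 450 nm after 1-2 h color development; readings normalized to DMSO-treated cells, IC50 by four-parameter nonlinear regression.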

[3] = test system: MV4-11; assay: as above; assay type: cell-based; settings: Homo sapiens, MV4-11, 168 h, MV4-11 cells, 7 days
How it was run: as §1

Structure (SMILES) | IC50 [1] [nM] | IC50 [2] [nM] | IC50 [3] [nM]
COC(=O)N[C@H]1CCC[C@@H]1[C@](CN(C)C)(c1cccc(F)c1)C1CCN(CC2CN(c3ccc(S(=O)(=O)C4CN(C(=O)/C=C/CN(C)C)C4)cc3)C2)CC1 [Cpd. No. 2, methyl ((1S,2R)-2-((S)-2-(dimethylamino)-1-(1-((1-(4-((1-((E)-4-(dimethylamino)but-2-enoyl)azetidin-3-yl)sulfonyl)phenyl)azetidin-3-yl)methyl)piperidin-4-yl)-1-(3-fluorophenyl)ethyl)cyclopentyl)carbamate] | 5 | < 10 | < 10
COC(=O)N[C@H]1CCC[C@@H]1[C@](CN1CCCC1)(c1cccc(F)c1)C1CCN(CC2CN(c3ccc(S(=O)(=O)C4CN(C(=O)/C=C/CN(C)C)C4)cc3)C2)CC1 [Cpd. No. 3] | 2 | < 50 | < 50
COC(=O)N[C@H]1CCC[C@@H]1[C@](CN1CCC1)(c1cccc(F)c1)C1CCN(CC2CN(c3ccc(S(=O)(=O)C4CN(C(=O)/C=C/CN(C)C)C4)cc3)C2)CC1 [Cpd. No. 5, methyl ((1S,2R)-2-((S)-2-(azetidin-1-yl)-1-(1-((1-(4-((1-((E)-4-(dimethylamino)but-2-enoyl)azetidin-3-yl)sulfonyl)phenyl)azetidin-3-yl)methyl)piperidin-4-yl)-1-(3-fluorophenyl)ethyl)cyclopentyl)carbamate] | 3 | < 50 | < 10
COC(=O)N[C@H]1CCC[C@@H]1[C@](CN1CCC1)(c1cccc(F)c1)C1CCN(CC2(F)CN(c3ccc(S(=O)(=O)C4CN(C(=O)/C=C/CN(C)C)C4)cc3)C2)CC1 [Cpd. No. 7, methyl ((1S,2R)-2-((S)-2-(azetidin-1-yl)-1-(1-((1-(4-((1-((E)-4-(dimethylamino)but-2-enoyl)azetidin-3-yl)sulfonyl)phenyl)-3-fluoroazetidin-3-yl)methyl)piperidin-4-yl)-1-(3-fluorophenyl)ethyl)cyclopentyl)carbamate] | 2 | < 100 | < 10
C=C(CN1CCOCC1)C(=O)N1CC(S(=O)(=O)c2ccc(N3CC(F)(CN4CCC([C@@](CN5CCC5)(c5cccc(F)c5)[C@H]5CCC[C@@H]5NC(=O)OC)CC4)C3)cc2)C1 [Cpd. No. 12, methyl ((1S,2R)-2-((S)-2-(azetidin-1-yl)-1-(1-((3-fluoro-1-(4-((1-(2-(morpholinomethyl)acryloyl)azetidin-3-yl)sulfonyl)phenyl)azetidin-3-yl)methyl)piperidin-4-yl)-1-(3-fluorophenyl)ethyl)cyclopentyl)carbamate] | 2 | < 100 | < 10
C=C(CN(C)C)C(=O)N1CC(S(=O)(=O)c2ccc(N3CC(F)(CN4CCC([C@@](CN5CCC5)(c5cccc(F)c5)[C@H]5CCC[C@@H]5NC(=O)OC)CC4)C3)cc2)C1 [Cpd. No. 13, methyl ((1S,2R)-2-((S)-2-(azetidin-1-yl)-1-(1-((1-(4-((1-(2-((dimethylamino)methyl)acryloyl)azetidin-3-yl)sulfonyl)phenyl)-3-fluoroazetidin-3-yl)methyl)piperidin-4-yl)-1-(3-fluorophenyl)ethyl)cyclopentyl)carbamate] | 1 | < 100 | < 10
C=C(CN1CCCCC1)C(=O)N1CC(S(=O)(=O)c2ccc(N3CC(CN4CCC([C@@](CN5CCC5)(c5cccc(F)c5)[C@H]5CCC[C@@H]5NC(=O)OC)CC4)C3)cc2)C1 [Cpd. No. 17, methyl ((1S,2R)-2-((S)-2-(azetidin-1-yl)-1-(3-fluorophenyl)-1-(1-((1-(4-((1-(2-(piperidin-1-ylmethyl)acryloyl)azetidin-3-yl)sulfonyl)phenyl)azetidin-3-yl)methyl)piperidin-4-yl)ethyl)cyclopentyl)carbamate] | 2 | < 100 | < 10
C=C(CN1CCCCC1)C(=O)N1CC(S(=O)(=O)c2ccc(N3CC(F)(CN4CCC([C@@](CN5CCC5)(c5cccc(F)c5)[C@H]5CCC[C@@H]5NC(=O)OC)CC4)C3)cc2)C1 [Cpd. No. 18, methyl ((1S,2R)-2-((S)-2-(azetidin-1-yl)-1-(1-((3-fluoro-1-(4-((1-(2-(piperidin-1-ylmethyl)acryloyl)azetidin-3-yl)sulfonyl)phenyl)azetidin-3-yl)methyl)piperidin-4-yl)-1-(3-fluorophenyl)ethyl)cyclopentyl)carbamate] | 2 | < 100 | < 10
C=C(CN1CCCC1)C(=O)N1CC(S(=O)(=O)c2ccc(N3CC(CN4CCC([C@@](CN5CCC5)(c5cccc(F)c5)[C@H]5CCC[C@@H]5NC(=O)OC)CC4)C3)cc2)C1 [Cpd. No. 19, methyl ((1S,2R)-2-((S)-2-(azetidin-1-yl)-1-(3-fluorophenyl)-1-(1-((1-(4-((1-(2-(pyrrolidin-1-ylmethyl)acryloyl)azetidin-3-yl)sulfonyl)phenyl)azetidin-3-yl)methyl)piperidin-4-yl)ethyl)cyclopentyl)carbamate] | 1 | < 100 | < 10
C=CC(=O)N1CCOC[C@@H](S(=O)(=O)c2ccc(N3CC(C)(CN4CCC([C@@](CNC(=O)OC)(c5cccc(F)c5)[C@H]5CCC[C@@H]5NC(=O)OC)CC4)C3)c(F)c2)C1 [compound 181] |  | < 500 | < 50
C=CC(=O)N1CCOC[C@@H](S(=O)(=O)c2ccc(N3CC(CN4CCC([C@@](Cn5ccnn5)(c5cccc(F)c5)[C@H]5CCC[C@@H]5NC(=O)OC)CC4)C3)c(F)c2)C1 [compound 182] |  | < 100 | < 10

Second part, the molecule after the results:

IC50 [1] [nM] | IC50 [2] [nM] | IC50 [3] [nM] | Structure (SMILES)
 | < 500 | < 500 | C=CC(=O)N1CCOC[C@@H](S(=O)(=O)c2ccc(N3CC(F)(CN4CCC([C@@](Cn5ccnn5)(c5cccc(F)c5)[C@H]5CCC[C@@H]5NC(=O)OC)CC4)C3)c(F)c2)C1 [compound 184]
 | < 1000 | < 100 | C=CC(=O)N1CCOC[C@@H](S(=O)(=O)c2ccc(N3CC(C)(CN4CCC([C@@](Cn5ccnn5)(c5cccc(F)c5)[C@H]5CCC[C@@H]5NC(=O)OC)CC4)C3)c(F)c2)C1 [compound 185]
 | < 50 | < 50 | C=CC(=O)N1CCCC[C@@H](S(=O)(=O)c2ccc(N3CC(CN4CCC([C@@](CNC(=O)OC)(c5cccc(F)c5)[C@H]5CCC[C@@H]5NC(=O)OC)CC4)C3)c(F)c2)C1 [compound 186]
 | < 10 | < 10 | C=CC(=O)Nc1cccc(S(=O)(=O)c2ccc(N3CC(CN4CCC([C@@](CN5CCC5)(c5cccc(F)c5)[C@H]5CCC[C@@H]5NC(=O)OC)CC4)(OC)C3)c(F)c2)c1 [compound 187]
 | < 10 | < 10 | C=CC(=O)Nc1cccc(S(=O)(=O)c2ccc(N3CC(CN4CCC([C@@](CN5CCC5)(c5cccc(F)c5)[C@H]5CCC[C@@H]5NC(=O)OC)CC4)(OC)C3)cc2)c1 [compound 188]
 | < 50 | < 50 | C=CC(=O)N1CCC[C@@H](S(=O)(=O)c2ccc(N3CC(CN4CCC([C@@](CNC(C)=O)(c5cccc(F)c5)[C@H]5CCC[C@@H]5NC(=O)OC)CC4)C3)cc2)C1 [compound 199]
 | < 500 | < 500 | C=CC(=O)N1CCC[C@@H](S(=O)(=O)c2ccc(N3CC(O)(CN4CCC([C@@](CNC(C)=O)(c5cccc(F)c5)[C@H]5CCC[C@@H]5NC(=O)OC)CC4)C3)cc2)C1 [compound 205]
 | < 50 | < 50 | C=CC(=O)N1CCC[C@@H](S(=O)(=O)c2ccc(N3CC(CN4CCC([C@@](CN5CCC5)(c5cccc(F)c5)[C@H]5CCC[C@@H]5NC(=O)OC)CC4)C3)cc2CN2CC(F)C2)C1 [compound 208]
 | < 100 | < 50 | C=CC(=O)N1CCC[C@@H](S(=O)(=O)c2ccc(N3CC(CN4CCC([C@@](CN5CCC5)(c5cccc(F)c5)[C@H]5CCC[C@@H]5NC(=O)OC)CC4)(OC)C3)cc2)C1 [compound 212]
 | < 100 | < 50 | C=CC(=O)N1CCOC[C@H](S(=O)(=O)c2ccc(N3CC(C)(CN4CCC([C@@](CN5CCC5)(c5cccc(F)c5)[C@H]5CCC[C@@H]5NC(=O)OC)CC4)C3)cc2)C1 [compound 213]
 | < 500 | < 500 | C=CC(=O)N1CCOC[C@@H](S(=O)(=O)c2ccc(N3CC(C)(CN4CCC([C@@](CN5CCC5)(c5cccc(F)c5)[C@H]5CCC[C@@H]5NC(=O)OC)CC4)C3)cc2)C1 [compound 214]
